Our source for the IC50 values is patent publication US11084829B2, “Ubiquitin-specific-processing protease 7 (USP7) modulators and uses thereof” (RAPT THERAPEUTICS, INC., priority 2018, dated 2021).

pIC50: −log10 of the molar value. Where only a bound is given, the exact number is not on record here.

This experiment concerns the target USP7 (Homo sapiens, UniProt Q93009). Kind of experiment: USP7 inhibitory potency (IC50). It is filed as biochemical. On the procedure:
Activity for compounds described herein is provided in Table 2, wherein potency levels are provided as follows: (Potency: USP7 IC50: A<0.01 μM; B=0.01-0.1 μM; C=>0.1 μM.

Chain of USP7 (Q93009 whole entry): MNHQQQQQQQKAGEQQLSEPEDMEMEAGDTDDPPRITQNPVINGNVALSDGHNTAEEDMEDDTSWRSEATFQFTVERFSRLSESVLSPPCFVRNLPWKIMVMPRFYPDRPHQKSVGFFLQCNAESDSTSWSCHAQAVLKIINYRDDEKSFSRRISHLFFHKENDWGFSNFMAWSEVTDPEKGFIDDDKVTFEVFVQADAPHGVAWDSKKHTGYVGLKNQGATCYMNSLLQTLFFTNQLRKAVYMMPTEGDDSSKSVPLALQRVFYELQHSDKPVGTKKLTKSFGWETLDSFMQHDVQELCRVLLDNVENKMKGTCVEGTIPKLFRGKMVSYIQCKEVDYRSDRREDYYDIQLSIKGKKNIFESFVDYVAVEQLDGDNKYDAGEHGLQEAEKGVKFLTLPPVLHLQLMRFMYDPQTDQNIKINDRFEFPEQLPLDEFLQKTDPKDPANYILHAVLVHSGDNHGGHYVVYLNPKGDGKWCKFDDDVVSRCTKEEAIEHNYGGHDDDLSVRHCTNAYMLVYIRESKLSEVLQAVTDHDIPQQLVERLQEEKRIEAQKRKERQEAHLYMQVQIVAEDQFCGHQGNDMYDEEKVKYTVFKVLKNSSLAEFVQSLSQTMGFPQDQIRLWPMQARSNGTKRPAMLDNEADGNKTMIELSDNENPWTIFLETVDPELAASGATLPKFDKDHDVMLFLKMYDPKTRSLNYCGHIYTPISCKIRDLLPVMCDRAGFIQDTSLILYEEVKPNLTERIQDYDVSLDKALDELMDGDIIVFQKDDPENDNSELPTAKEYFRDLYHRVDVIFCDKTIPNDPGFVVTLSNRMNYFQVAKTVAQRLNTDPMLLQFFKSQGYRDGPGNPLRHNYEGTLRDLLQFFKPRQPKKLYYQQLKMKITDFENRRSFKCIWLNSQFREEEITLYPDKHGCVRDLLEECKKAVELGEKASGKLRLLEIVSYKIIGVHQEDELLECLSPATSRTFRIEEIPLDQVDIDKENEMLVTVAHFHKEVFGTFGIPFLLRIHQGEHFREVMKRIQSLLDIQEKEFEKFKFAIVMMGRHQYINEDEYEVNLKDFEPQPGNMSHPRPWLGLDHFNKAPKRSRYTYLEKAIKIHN

With “3-((4-(2-((5-oxa-8-azaspiro[3.5]nonan-6-yl)methyl)-5-chloro-3-methylphenyl)thieno[3,2-d]pyrimidin-6-yl)methyl)-3-azabicyclo[3.1.0]hexane-2,4-dione [Example 221]”, the pIC50 was over 8.00.

“3-((7-(3,5-dichloro-2-(((2S,6S)-2,6-dimethylpiperazin-1-yl)methyl)phenyl)thieno[3,2-b]pyridin-2-yl)methyl)-1-methyldihydropyrimidine-2,4(1H,3H)-dione [Example 93]” had a negative logarithm of the IC50 (pIC50) of over 8.00. With “3-((7-(3,5-dichloro-2-(((2S,6S)-2,6-dimethylpiperazin-1-yl)methyl)phenyl)thieno[3,2-b]pyridin-2-yl)methyl)-1-methylpyrimidine-2,4(1H,3H)-dione [Example 95]” the figure was over 8.00. As for “3-((7-(5-chloro-2-(((2S,6S)-2,6-dimethyl piperazin-1-yl)methyl)-3-methylphenyl)thieno[3,2-b]pyridin-2-yl)methyl)-1-methylpyrimidine-2,4(1H,3H)-dione [Example 78]”, the negative-log IC50 (pIC50) was over 8.00.

Turning to `Cc1cc(Cl)cc(-c2ccnc3cc(Cn4c(=O)ccn(CC(F)(F)F)c4=O)sc23)c1CN1CCNC(=O)C1` [Example 1, 3-((7-(5-chloro-3-methyl-2-((3-oxopiperazin-1-yl)methyl)phenyl)thieno[3,2-b]pyridin-2-yl)methyl)-1-(2,2,2-trifluoroethyl)pyrimidine-2,4(1H,3H)-dione], the pIC50 is under 7.00. With `Cc1cc(Cl)cc(-c2ccnc3cc(Cn4c(=O)ccn(CC(F)(F)F)c4=O)sc23)c1CN1CCNCC1` [Example 2, 3-((7-(5-chloro-3-methyl-2-(piperazin-1-ylmethyl)phenyl)thieno[3,2-b]pyridin-2-yl)methyl)-1-(2,2,2-trifluoroethyl)pyrimidine-2,4(1H,3H)-dione] the figure was over 8.00. In turn, `Cc1cc(Cl)cc(-c2ccnc3cc(CN4C(=O)CCC4=O)sc23)c1CN1CCN(C)C[C@@H]1C` [Example 3, (S)-1-((7-(5-chloro-2-((2,4-dimethylpiperazin-1 yl)methyl)-3-methylphenyl)thieno[3,2-b]pyridin-2-yl)methyl)pyrrolidine-2,5-dione] had a negative logarithm of the IC50 (pIC50) of over 8.00.

Turning to `Cc1cc(Cl)cc(-c2ccnc3cc(Cn4c(=O)ccn(CC(F)(F)F)c4=O)sc23)c1CN1CCNCC1=O` [Example 4, 3-((7-(5-chloro-3-methyl-2-((2-oxopiperazin-1-yl)methyl)phenyl)thieno[3,2-b]pyridin-2-yl)methyl)-1-(2,2,2-trifluoroethyl)pyrimidine-2,4(1H,3H)-dione], the negative logarithm of the IC50 (pIC50) was under 7.00. With `Cc1cc(Cl)cc(-c2ccnc3cc(CN4C(=O)CCC4=O)sc23)c1CN1CCNCC1` [Example 5, 1-((7-(5-chloro-3-methyl-2-(piperazin-1-ylmethyl)phenyl)thieno[3,2-b]pyridin-2-yl)methyl)pyrrolidine-2,5-dione] the figure was 7.00 to 8.00. With `Cc1cc(Cl)cc(-c2ccnc3cc(CN4C(=O)C5C(C4=O)C5(C)C)sc23)c1CN1CCNCC1` (centres unmarked) [Example 6, 3-((7-(5-chloro-3-methyl-2-(piperazin-1-ylmethyl)phenyl)thieno[3,2-b]pyridin-2-yl)methyl)-6,6-dimethyl-3-azabicyclo[3.1.0]hexane-2,4-dione] the figure was 7.00 to 8.00; with `Cc1cc(Cl)cc(-c2ccnc3cc(CN4C(=O)CCC4=O)sc23)c1CN1CCNC[C@H]1C` [Example 7, (R)-1-((7-(5-chloro-3-methyl-2-((2-methylpiperazin-1-yl)methyl)phenyl)thieno[3,2-b]pyridin-2-yl)methyl)pyrrolidine-2,5-dione], 7.00 to 8.00. For `Cc1cc(Cl)cc(-c2ccnc3cc(CN4C(=O)CCC4=O)sc23)c1CN1CCNC[C@@H]1C` [Example 8, (S)-1-((7-(5-chloro-3-methyl-2-((2-methylpiperazin-1-yl)methyl)phenyl)thieno[3,2-b]pyridin-2-yl)methyl)pyrrolidine-2,5-dione], the pIC50 was over 8.00. As for `Cc1cc(Cl)cc(-c2ccnc3cc(CN4C(=O)CCC4=O)sc23)c1CN1CC2CCC1CN2` (centres unmarked) [Example 9, 1-((7-(2-((2,5-diazabicyclo[2.2.2]octan-2-yl)methyl)-5-chloro-3-methylphenyl)thieno[3,2-b]pyridin-2-yl)methyl)pyrrolidine-2,5-dione], the pIC50 is over 8.00.

Compound `Cc1cc(Cl)cc(-c2ccnc3cc(CN4C(=O)CCC4=O)sc23)c1CN1CCNC(C)(C)C1` [Example 10, 1-((7-(5-chloro-2-((3,3-dimethylpiperazin-1-yl)methyl)-3-methylphenyl)thieno[3,2-b]pyridin-2-yl)methyl)pyrrolidine-2,5-dione] gave a negative-log IC50 (pIC50) of over 8.00. In turn, `CCN1CCN(Cc2c(C)cc(Cl)cc2-c2ccnc3cc(CN4C(=O)CCC4=O)sc23)[C@@H](C)C1` [Example 11, (S)-1-((7-(5-chloro-2-((4-ethyl-2-methylpiperazin-1-yl)methyl)-3-methylphenyl)thieno[3,2-b]pyridin-2-yl)methyl)pyrrolidine-2,5-dione] showed a pIC50 of over 8.00. With `Cc1cc(Cl)cc(-c2ccnc3cc(CN4C(=O)CCC4=O)sc23)c1CN1CCNCC1(C)C` [Example 12, 1-((7-(5-chloro-2-((2,2-dimethylpiperazin-1-yl)methyl)-3-methylphenyl)thieno[3,2-b]pyridin-2-yl)methyl)pyrrolidine-2,5-dione] the figure was over 8.00. As for `Cc1cc(Cl)cc(-c2ccnc3cc(CN4C(=O)CCC4=O)sc23)c1CN1CCN(CCO)C[C@@H]1C` [Example 13, (S)-1-((7-(5-chloro-2-((4-(2-hydroxyethyl)-2-methylpiperazin-1-yl)methyl)-3-methylphenyl)thieno[3,2-b]pyridin-2-yl)methyl)pyrrolidine-2,5-dione], the negative-log IC50 (pIC50) is over 8.00. With `Cc1cc(Cl)cc(-c2ccnc3cc(CN4C(=O)CCC4=O)sc23)c1CN1[C@@H](C)CNC[C@@H]1C` [Example 14, 1-((7-(5-chloro-2-(((2S,6S)-2,6-dimethylpiperazin-1-yl)methyl)-3-methylphenyl)thieno[3,2-b]pyridin-2-yl)methyl)pyrrolidine-2,5-dione] the figure was over 8.00.

Consider `Cc1cc(Cl)cc(-c2ccnc3cc(CN4C(=O)CCC4=O)sc23)c1CN1CC2CC1CN2` (centres unmarked) [Example 15, 1-((7-(2-((2,5-diazabicyclo[2.2.1]heptan-2-yl)methyl)-5-chloro-3-methylphenyl)thieno[3,2-b]pyridin-2-yl)methyl)pyrrolidine-2,5-dione], for which the pIC50 is over 8.00. With `Cc1cc(Cl)cc(-c2ccnc3cc(CN4C(=O)CCC4=O)sc23)c1CN1CCNCC1C(F)F` (centres unmarked) [Example 16, 1-((7-(5-chloro-2-((2-(difluoromethyl)piperazin-1-yl)methyl)-3-methylphenyl)thieno[3,2-b]pyridin-2-yl)methyl)pyrrolidine-2,5-dione] the figure was 7.00 to 8.00.

In turn, `Cc1cc(Cl)cc(-c2ccnc3cc(CN4C(=O)CCC4=O)sc23)c1CN1CCCNCC1` [Example 17, 1-((7-(2-((1,4-diazepan-1-yl)methyl)-5-chloro-3-methylphenyl)thieno[3,2-b]pyridin-2-yl)methyl)pyrrolidine-2,5-dione] showed a negative-log IC50 (pIC50) of over 8.00. With `Cc1cc(Cl)cc(-c2ccnc3cc(CN4C(=O)CCC4=O)sc23)c1CN1CCNC(C)C1` (centres unmarked) [Example 18, 1-((7-(5-chloro-3-methyl-2-((3-methylpiperazin-1-yl)methyl)phenyl)thieno[3,2-b]pyridin-2-yl)methyl)pyrrolidine-2,5-dione], the negative-log IC50 (pIC50) is over 8.00. With `Cc1cc(Cl)cc(-c2ccnc3cc(CN4C(=O)CCC4=O)sc23)c1CN1C[C@@H](C)N[C@@H](C)C1` [Example 19, 1-((7-(5-chloro-2-(((3 S,5R)-3,5-dimethylpiperazin-1-yl)methyl)-3-methylphenyl)thieno[3,2-b]pyridin-2-yl)methyl)pyrrolidine-2,5-dione] the figure was 7.00 to 8.00; with `Cc1cc(Cl)cc(-c2ccnc3cc(CN4C(=O)C5C(C4=O)C5(C)C)sc23)c1CN1CCNC[C@@H]1C` (stereo partly drawn) [Example 20, 3-((7-(5-chloro-3-methyl-2-(((S)-2-methylpiperazin-1-yl)methyl)phenyl)thieno[3,2-b]pyridin-2-yl)methyl)-6,6-dimethyl-3-azabicyclo[3.1.0]hexane-2,4-dione], over 8.00; with `Cc1cc(Cl)cc(-c2ccnc3cc(CN4C(=O)CCC4=O)sc23)c1CN1CCN(C(C)C)C[C@@H]1C` [Example 21, (S)-1-((7-(5-chloro-2-((4-isopropyl-2-methylpiperazin-1-yl)methyl)-3-methylphenyl)thieno[3,2-b]pyridin-2-yl)methyl)pyrrolidine-2,5-dione], over 8.00. With `Cc1cc(Cl)cc(-c2ccnc3cc(CN4C(=O)CCC4=O)sc23)c1CN1[C@H](C)CNC[C@@H]1C` [Example 22, 1-((7-(5-chloro-2-(((2R,6S)-2,6-dimethylpiperazin-1-yl)methyl)-3-methylphenyl)thieno[3,2-b]pyridin-2-yl)methyl)pyrrolidine-2,5-dione] the figure was over 8.00. With `Cc1cc(Cl)cc(-c2ccnc3cc(CN4C(=O)C5C(C4=O)C5(C)C)sc23)c1CN1CCN(C)C[C@@H]1C` (stereo partly drawn) [Example 23, 3-((7-(5-chloro-2-(((S)-2,4-dimethylpiperazin-1-yl)methyl)-3-methylphenyl)thieno[3,2-b]pyridin-2-yl)methyl)-6,6-dimethyl-3-azabicyclo[3.1.0]hexane-2,4-dione] the figure was over 8.00.

Consider `CCN1CCN(Cc2c(C)cc(Cl)cc2-c2ccnc3cc(CN4C(=O)C5C(C4=O)C5(C)C)sc23)[C@@H](C)C1` (stereo partly drawn) [Example 24, 3-((7-(5-chloro-2-(((S)-4-ethyl-2-methylpiperazin-1-yl)methyl)-3-methylphenyl)thieno[3,2-b]pyridin-2-yl)methyl)-6,6-dimethyl-3-azabicyclo[3.1.0]hexane-2,4-dione], for which the negative logarithm of the IC50 (pIC50) is over 8.00.

Turning to `Cc1cc(Cl)cc(-c2ccnc3cc(CN4C(=O)CCC4=O)sc23)c1CN1C[C@H](C)N[C@@H](C)C1` [Example 25, 1-((7-(5-chloro-2-(((3 S,5 S)-3,5-dimethylpiperazin-1-yl)methyl)-3-methylphenyl)thieno[3,2-b]pyridin-2-yl)methyl)pyrrolidine-2,5-dione], the negative logarithm of the IC50 (pIC50) was over 8.00.
